# Measured values taken from US20100041089A1, “IMPROVED METHOD FOR DETECTING CHEMICAL […]” (priority 2006, published 2010).
# System: yeast genes (expressed mRNA)
# Assay: DNA chip measurement of expressed mRNA of yeast genes after culture with a toxic chemical substance
# Assay type: cell-based, Saccharomyces cerevisiae S288C
# Details: for level of expressed mRNA in the presence of chemical substance / level in the absence of chemical substance: cultured two hours with the chemical substance; for The level of expressed mRNA in the presence of chemical substance/The level of expressed mRNA in the absence of chemical substance: cultured two hours with substance
# Procedure, shortened: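 Yeast S288C, YPD 25° C; toxicant at log phase, 2 h, sublethal growth-inhibiting conc.; no-chemical control. Hot SDS/acetate RNA extraction, oligo-dT mRNA, Cy3/Cy5-dUTP RT. Whole-genome chip, 65° C >12 h. Readout: treated/control intensity ratio, ≥2 significant.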
structure (smiles),measurement,setting,value
"[Cl][Pb][Cl] [(4), PbCl2]",level of expressed mRNA in the presence of chemical substance / level in the absence of chemical substance,yeast gene YDR133C,2.0
same,level of expressed mRNA in the presence of chemical substance / level in the absence of chemical substance,yeast gene YDR250C,3.0
same,level of expressed mRNA in the presence of chemical substance / level in the absence of chemical substance,yeast gene YDR278C,1.0
same,level of expressed mRNA in the presence of chemical substance / level in the absence of chemical substance,yeast gene YDR281C,2.1
same,The level of expressed mRNA in the presence of chemical substance/The level of expressed mRNA in the absence of chemical substance,yeast gene YDR330W,0.8
same,level of expressed mRNA in the presence of chemical substance / level in the absence of chemical substance,yeast gene YDR366C,0.9
same,The level of expressed mRNA in the presence of chemical substance/The level of expressed mRNA in the absence of chemical substance,yeast gene YDR411C,1.2
same,The level of expressed mRNA in the presence of chemical substance/The level of expressed mRNA in the absence of chemical substance,yeast gene YDR511W,2.3
same,The level of expressed mRNA in the presence of chemical substance/The level of expressed mRNA in the absence of chemical substance,yeast gene YDR545W,0.7
same,The level of expressed mRNA in the presence of chemical substance/The level of expressed mRNA in the absence of chemical substance,yeast gene YEL001C,0.7
same,The level of expressed mRNA in the presence of chemical substance/The level of expressed mRNA in the absence of chemical substance,yeast gene YER004W,1.4
same,The level of expressed mRNA in the presence of chemical substance/The level of expressed mRNA in the absence of chemical substance,yeast gene YER035W,1.9
same,The level of expressed mRNA in the presence of chemical substance/The level of expressed mRNA in the absence of chemical substance,yeast gene YER079W,2.0
same,The level of expressed mRNA in the presence of chemical substance/The level of expressed mRNA in the absence of chemical substance,yeast gene YER106W,1.2
same,The level of expressed mRNA in the presence of chemical substance/The level of expressed mRNA in the absence of chemical substance,yeast gene YER158C,3.1
same,The level of expressed mRNA in the presence of chemical substance/The level of expressed mRNA in the absence of chemical substance,yeast gene YER163C,1.6
same,The level of expressed mRNA in the presence of chemical substance/The level of expressed mRNA in the absence of chemical substance,yeast gene YER175C,2.2
same,The level of expressed mRNA in the presence of chemical substance/The level of expressed mRNA in the absence of chemical substance,yeast gene YFL006W,1.0
same,The level of expressed mRNA in the presence of chemical substance/The level of expressed mRNA in the absence of chemical substance,yeast gene YFL010C,1.0
same,The level of expressed mRNA in the presence of chemical substance/The level of expressed mRNA in the absence of chemical substance,yeast gene YFL024C,0.7
same,The level of expressed mRNA in the presence of chemical substance/The level of expressed mRNA in the absence of chemical substance,yeast gene YFL032W,0.8
same,level of expressed mRNA in the presence of chemical substance / level in the absence of chemical substance,yeast gene YFR026C,0.8
same,The level of expressed mRNA in the presence of chemical substance/The level of expressed mRNA in the absence of chemical substance,yeast gene YGL037C,2.1
same,The level of expressed mRNA in the presence of chemical substance/The level of expressed mRNA in the absence of chemical substance,yeast gene YGL047W,2.3
same,The level of expressed mRNA in the presence of chemical substance/The level of expressed mRNA in the absence of chemical substance,yeast gene YGL053W,2.5
same,level of expressed mRNA in the presence of chemical substance / level in the absence of chemical substance,yeast gene YGL088W,1.1
same,The level of expressed mRNA in the presence of chemical substance/The level of expressed mRNA in the absence of chemical substance,yeast gene YGL121C,4.2
same,The level of expressed mRNA in the presence of chemical substance/The level of expressed mRNA in the absence of chemical substance,yeast gene YGL199C,1.0
same,level of expressed mRNA in the presence of chemical substance / level in the absence of chemical substance,yeast gene YGR038W,0.8
same,The level of expressed mRNA in the presence of chemical substance/The level of expressed mRNA in the absence of chemical substance,yeast gene YGR101W,1.1
same,The level of expressed mRNA in the presence of chemical substance/The level of expressed mRNA in the absence of chemical substance,yeast gene YGR110W,5.9
same,The level of expressed mRNA in the presence of chemical substance/The level of expressed mRNA in the absence of chemical substance,yeast gene YGR130C,1.6
same,level of expressed mRNA in the presence of chemical substance / level in the absence of chemical substance,yeast gene YGR139W,0.7
same,The level of expressed mRNA in the presence of chemical substance/The level of expressed mRNA in the absence of chemical substance,yeast gene YGR154C,0.5
same,The level of expressed mRNA in the presence of chemical substance/The level of expressed mRNA in the absence of chemical substance,yeast gene YGR221C,1.4
same,level of expressed mRNA in the presence of chemical substance / level in the absence of chemical substance,yeast gene YGR243W,5.0
same,level of expressed mRNA in the presence of chemical substance / level in the absence of chemical substance,yeast gene YGR293C,0.0
same,level of expressed mRNA in the presence of chemical substance / level in the absence of chemical substance,yeast gene YHL006C,0.6
same,level of expressed mRNA in the presence of chemical substance / level in the absence of chemical substance,yeast gene YHR095W,2.1
same,level of expressed mRNA in the presence of chemical substance / level in the absence of chemical substance,yeast gene YHR105W,6.3
same,The level of expressed mRNA in the presence of chemical substance/The level of expressed mRNA in the absence of chemical substance,yeast gene YHR138C,2.8
same,level of expressed mRNA in the presence of chemical substance / level in the absence of chemical substance,yeast gene YHR181W,1.4
same,The level of expressed mRNA in the presence of chemical substance/The level of expressed mRNA in the absence of chemical substance,yeast gene YHR199C,2.0
same,The level of expressed mRNA in the presence of chemical substance/The level of expressed mRNA in the absence of chemical substance,yeast gene YIL023C,1.8
same,The level of expressed mRNA in the presence of chemical substance/The level of expressed mRNA in the absence of chemical substance,yeast gene YIL041W,1.3
same,The level of expressed mRNA in the presence of chemical substance/The level of expressed mRNA in the absence of chemical substance,yeast gene YIL087C,1.6
same,level of expressed mRNA in the presence of chemical substance / level in the absence of chemical substance,yeast gene YIL127C,1.2
same,level of expressed mRNA in the presence of chemical substance / level in the absence of chemical substance,yeast gene YJL017W,1.1
same,level of expressed mRNA in the presence of chemical substance / level in the absence of chemical substance,yeast gene YJL037W,2.4
same,The level of expressed mRNA in the presence of chemical substance/The level of expressed mRNA in the absence of chemical substance,yeast gene YJL057C,1.7
same,The level of expressed mRNA in the presence of chemical substance/The level of expressed mRNA in the absence of chemical substance,yeast gene YJL066C,2.5
same,The level of expressed mRNA in the presence of chemical substance/The level of expressed mRNA in the absence of chemical substance,yeast gene YJL082W,1.1
